{"source": "patent US9822115B2", "about": "“Nitrogen containing compounds and their use as antibacterial agents” (WOCKHARDT LIMITED, priority 2014, dated 2017)", "key": {"[1]": {"tested_on": "T1, Class C beta-lactamase, E. coli M50 (CMY/DHA)", "T1 construct": "no borders, tags or purification printed", "assay_type": "biochemical", "settings": "read-out: Beta-lactamase enzyme inhibition IC50", "method": "Determination of enzyme inhibition activity: Concentration of the inhibitor required to inhibit 50% of enzymatic activity was measured by adding a chromogenic substrate, Nitrocefin (100 uM, 5 min) to the preincubated mixture of crude enzyme and the agents (37° C., 10 min). Absorbance was measured at 485 nm by UV-spectrophotometer. The IC50 was calculated by plotting absorbance against concentration through Sigmoidal dose response curve using Graph Pad software.\nThe enzyme inhibition was expressed as IC50."}, "[2]": {"tested_on": "K. pneomoniae S48 (NDM, SHV, TEM)", "assay": "Antibacterial activity, MIC by agar dilution (CLSI)", "assay_type": "cell-based, K. pneumoniae", "settings": "Klebsiella pneumoniae; Table 2; K. pneomoniae S48 (NDM, SHV, TEM); read-out: MIC", "how_it_was_run": "(§1)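 Agar dilution per CLSI on Mueller Hinton agar with doubling compound dilutions, about 10^4 CFU/spot by multipoint inoculator. Plates incubated 16-20 h at 35±2° C in ambient air; procedure also gives 37° C for 18 h. MIC (mcg/ml) scored as growth or no growth.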"}, "[3]": {"target": "T2, Class A beta-lactamase, K. pneumoniae ATCC 700603 (SHV 18) (Klebsiella pneumoniae, UniProt P0AD64, E235K/G234A/R39S)", "T2 construct": "preincubated mixture of crude enzyme and the agents; endogenous in cells; host or cells: K. pneumoniae ATCC 700603", "T2 sequence (P0AD64 22-286 R39S/G234A/E235K)": "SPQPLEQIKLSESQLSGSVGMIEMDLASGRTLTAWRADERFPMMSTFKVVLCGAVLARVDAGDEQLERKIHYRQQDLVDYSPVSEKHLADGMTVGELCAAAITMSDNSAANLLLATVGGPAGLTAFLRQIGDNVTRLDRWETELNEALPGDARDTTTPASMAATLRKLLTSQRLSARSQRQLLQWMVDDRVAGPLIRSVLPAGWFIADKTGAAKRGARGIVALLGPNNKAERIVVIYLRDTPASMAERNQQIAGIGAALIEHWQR", "assay": "biochemical", "how_it_was_run": "(§2)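 Crude enzyme preincubated with inhibitor 10 min at 37 °C, then nitrocefin (100 uM) added for 5 min. Absorbance read at 485 nm; IC50 obtained from sigmoidal dose-response fit of absorbance versus concentration.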"}, "[4]": {"target": "T3, Class D beta-lactamase, A. baumannii NCTC 13301 (OXA 23) (Acinetobacter baumannii, UniProt Q9L4P2)", "T3 construct": "preincubated mixture of crude enzyme and the agents; endogenous in cells; host or cells: A. baumannii NCTC 13301", "T3 sequence (Q9L4P2 18-273)": "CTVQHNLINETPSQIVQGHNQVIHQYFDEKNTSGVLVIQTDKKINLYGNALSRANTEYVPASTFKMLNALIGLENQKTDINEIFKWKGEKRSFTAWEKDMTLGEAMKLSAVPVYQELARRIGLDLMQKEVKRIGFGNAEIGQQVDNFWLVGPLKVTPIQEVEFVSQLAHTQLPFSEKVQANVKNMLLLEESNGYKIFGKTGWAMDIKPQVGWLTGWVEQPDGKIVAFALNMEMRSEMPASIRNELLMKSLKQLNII", "assay": "Beta-lactamase enzyme inhibition (nitrocefin, crude enzyme)", "assay_type": "biochemical", "settings": "Class D A. baumannii NCTC 13301 (OXA 23); read-out: Beta-lactamase enzyme inhibition IC50", "how_it_was_run": "as §2"}, "[5]": {"tested_on": "K. pneumoniae H521 (KPC, SHV, TEM)", "assay": "Antibacterial activity, MIC by agar dilution (CLSI)", "assay_type": "cell-based", "settings": "Klebsiella pneumoniae, Table 2; K. pneumoniae H521 (KPC, SHV, TEM); read-out: MIC", "how_it_was_run": "as §1"}, "E. coli NCTC 13353": {"tested_on": "E. coli NCTC 13353", "assay": "Zone of inhibition, compound alone and in combination with ceftazidime (agar well)", "assay_type": "cell-based", "settings": "for zone of inhibition at 0.25 µg/disc / zone of inhibition at 0.5 µg/disc / zone of inhibition at 1 µg/disc / zone of inhibition at […]: Escherichia coli, NCTC13353, E. coli NCTC 13353, read-out: Diameter of Zone of Inhibition; for zone of inhibition at 0.5 µg/disc: 0.5 μg/well; for zone of inhibition at 1 µg/disc: 1 μg/well", "method": "(§3) Determination of antibacterial activity of combinations according to invention: In a typical experiment, two sets of plates containing growth media (Molten Mueller Hilton Agar) and bacterial strains were prepared. One set of plates was taken as control (without ceftazidime) and other set contained ceftazidime. The media was allowed to solidify and wells were punched later. A two-fold serial dilution range of each of the compounds according to invention was prepared and 50 μl of each of the dilution was added into the punched well. […] The Table 5 provides the antibacterial activity of the combination comprising compounds according to invention and ceftazidime."}, "E. coli M50": {"tested_on": "E. coli M50", "assay": "Zone of inhibition, compound alone and in combination with ceftazidime (agar well)", "assay_type": "cell-based", "settings": "for Diameter of Zone of Inhibition: E. coli M50; for zone of inhibition at 0.5 µg/disc: 0.5 μg/well; for zone of inhibition at 1 µg/disc: 1 μg/well", "method": "as §3"}, "[6]": {"tested_on": "E. coli NCTC 13353 (CTX-M15, OXA-1)", "assay": "Antibacterial activity, MIC by agar dilution (CLSI)", "assay_type": "cell-based", "settings": "Escherichia coli, NCTC13353, Table 2; E. Coli NCTC 13353 (CTX-M15, OXA-1); read-out: MIC", "how_it_was_run": "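CLSI agar dilution on Mueller Hinton agar containing doubling compound dilutions, inoculated at about 10^4 CFU/spot from fresh cultures. Plates were incubated 18 h at 37 °C in ambient air before growth scoring. MIC is reported in mcg/ml.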"}, "[7]": {"settings": "Compound + Ceftazidime (10 μg/ml), 0.25 μg/well"}, "[8]": {"settings": "Compound + Ceftazidime (10 μg/ml)"}, "[9]": {"settings": "Escherichia coli, M50, E. coli M50, Compound + Ceftazidime (10 μg/ml), 0.25 μg/well, read-out: Diameter of Zone of Inhibition"}, "[10]": {"settings": "Escherichia coli, M50, E. coli M50, Compound + Ceftazidime (10 μg/ml), read-out: Diameter of Zone of Inhibition"}, "[11]": {"settings": "Escherichia coli, M50, E. coli M50, Compound alone, read-out: Diameter of Zone of Inhibition"}}, "note": "Read-outs that look alike come from different tables or passages of the source."}
{"smiles": "C[C@@H](N)COc1ccccc1CC(=O)NNC(=O)[C@@H]1CC[C@@H]2CN1C(=O)N2OS(=O)(=O)O", "note": "[Example 3, (2S,5R)-Sulfuric Acid mono-[2-(N′-{2-[2-((R)-2-amino-propoxy)-phenyl]-acetyl}-hydrazinocarbonyl)-7-oxo-1,6-diaza-bicyclo[3.2.1]oct-6-yl]ester]", "values": [{"measurement": "IC50", "setting": "[1]", "value": 73, "unit": "nM"}, {"measurement": "MIC", "setting": "[2]", "value": 1, "unit": "µg/mL"}, {"measurement": "IC50", "setting": "[3]", "value": 80, "unit": "nM"}, {"measurement": "IC50", "setting": "[4]", "value": 2020, "unit": "nM"}, {"measurement": "MIC", "setting": "[5]", "value": 2, "unit": "µg/mL"}, {"measurement": "Diameter of Zone of Inhibition", "setting": "E. coli NCTC 13353; E. coli NCTC 13353, Compound alone, 0.25 μg/well", "value": "No growth"}, {"measurement": "zone of inhibition at 0.25 µg/disc", "setting": "E. coli NCTC 13353; [7]", "value": 14.5, "unit": "mm"}, {"measurement": "zone of inhibition at 0.5 µg/disc", "setting": "E. coli NCTC 13353; [8]", "value": 17.5, "unit": "mm"}, {"measurement": "zone of inhibition at 1 µg/disc", "setting": "E. coli NCTC 13353; [8]", "value": 21.5, "unit": "mm"}, {"measurement": "zone of inhibition at […]", "setting": "E. coli NCTC 13353; [8]", "value": 11, "unit": "mm"}, {"measurement": "zone of inhibition at 0.5 µg/disc", "setting": "E. coli NCTC 13353; Compound alone", "value": 10, "unit": "mm"}, {"measurement": "zone of inhibition at 1 µg/disc", "setting": "E. coli NCTC 13353; Compound alone", "value": 13, "unit": "mm"}, {"measurement": "Diameter of Zone of Inhibition", "setting": "E. coli M50; Compound + Ceftazidime (10 μg/ml), […]", "value": "No growth"}, {"measurement": "Diameter of Zone of Inhibition", "setting": "E. coli M50; Compound alone, 0.25 μg/well", "value": "No growth"}, {"measurement": "zone of inhibition at 0.25 µg/disc", "setting": "E. coli M50; [9]", "value": 10.5, "unit": "mm"}, {"measurement": "zone of inhibition at 0.5 µg/disc", "setting": "E. coli M50; [10]", "value": 14, "unit": "mm"}, {"measurement": "zone of inhibition at 1 µg/disc", "setting": "E. coli M50; [10]", "value": 17, "unit": "mm"}, {"measurement": "zone of inhibition at 0.5 µg/disc", "setting": "E. coli M50; [11]", "value": 11.5, "unit": "mm"}, {"measurement": "zone of inhibition at 1 µg/disc", "setting": "E. coli M50; [11]", "value": 14, "unit": "mm"}, {"measurement": "MIC", "setting": "[6]", "value": 1, "unit": "µg/mL"}]}
{"smiles": "NCc1ccc(CC(=O)NNC(=O)[C@@H]2CC[C@@H]3CN2C(=O)N3OS(=O)(=O)O)cc1", "note": "[Example 12, (2S,5R)-sulfuric acid mono-[2-(N′-(4-aminomethyl-phenyl-acetyl)-hydrazinocarbonyl)-7-oxo-1,6-diaza-bicyclo[3.2.1]oct-6-yl]ester]", "values": [{"measurement": "IC50", "setting": "[1]", "value": 13, "unit": "nM"}, {"measurement": "MIC", "setting": "[2]", "value": 0.25, "unit": "µg/mL"}, {"measurement": "IC50", "setting": "[3]", "value": 144, "unit": "nM"}, {"measurement": "IC50", "setting": "[4]", "value": 539, "unit": "nM"}, {"measurement": "MIC", "setting": "[5]", "value": 0.25, "unit": "µg/mL"}, {"measurement": "zone of inhibition at 0.25 µg/disc", "setting": "E. coli NCTC 13353; [7]", "value": 22, "unit": "mm"}, {"measurement": "zone of inhibition at 0.5 µg/disc", "setting": "E. coli NCTC 13353; [8]", "value": 26, "unit": "mm"}, {"measurement": "zone of inhibition at 1 µg/disc", "setting": "E. coli NCTC 13353; [8]", "value": 29, "unit": "mm"}, {"measurement": "zone of inhibition at […]", "setting": "E. coli NCTC 13353; [8]", "value": 19, "unit": "mm"}, {"measurement": "zone of inhibition at 0.25 µg/disc", "setting": "E. coli NCTC 13353; Compound alone, 0.25 μg/well", "value": 15.5, "unit": "mm"}, {"measurement": "zone of inhibition at 0.5 µg/disc", "setting": "E. coli NCTC 13353; Compound alone", "value": 17, "unit": "mm"}, {"measurement": "zone of inhibition at 1 µg/disc", "setting": "E. coli NCTC 13353; Compound alone", "value": 19, "unit": "mm"}, {"measurement": "zone of inhibition at 0.25 µg/disc", "setting": "E. coli M50; [9]", "value": 19, "unit": "mm"}, {"measurement": "zone of inhibition at 0.5 µg/disc", "setting": "E. coli M50; [10]", "value": 21, "unit": "mm"}, {"measurement": "zone of inhibition at 1 µg/disc", "setting": "E. coli M50; [10]", "value": 23, "unit": "mm"}, {"measurement": "zone of inhibition at […]", "setting": "E. coli M50; Escherichia coli, M50, E. coli M50, Compound + Ceftazidime (10 μg/ml), […], read-out: Diameter of Zone of Inhibition", "value": 16, "unit": "mm"}, {"measurement": "zone of inhibition at 0.25 µg/disc", "setting": "E. coli M50; Escherichia coli, M50, E. coli M50, Compound alone, 0.25 μg/well, read-out: Diameter of Zone of Inhibition", "value": 15, "unit": "mm"}, {"measurement": "zone of inhibition at 0.5 µg/disc", "setting": "E. coli M50; [11]", "value": 18, "unit": "mm"}, {"measurement": "zone of inhibition at 1 µg/disc", "setting": "E. coli M50; [11]", "value": 19.5, "unit": "mm"}, {"measurement": "MIC", "setting": "[6]", "value": 0.25, "unit": "µg/mL"}]}
{"smiles": "O=C(Cc1ccccc1OC[C@H]1CCCN1)NNC(=O)[C@@H]1CC[C@@H]2CN1C(=O)N2OS(=O)(=O)O", "note": "[Example 57, (2S,5R)-sulfuric acid mono-[2-(N′-{2-[2-((R)-pyrrolidin-2-ylmethoxy)-phenyl]-acetyl}-hydrazinocarbonyl)-7-oxo-1,6-diaza-bicyclo[3.2.1]oct-6-yl]ester]", "values": [{"measurement": "IC50", "setting": "[1]", "value": 105, "unit": "nM"}, {"measurement": "MIC", "setting": "[2]", "value": 2, "unit": "µg/mL"}, {"measurement": "IC50", "setting": "[3]", "value": 125, "unit": "nM"}, {"measurement": "IC50", "setting": "[4]", "value": 3290, "unit": "nM"}, {"measurement": "MIC", "setting": "[5]", "value": 4, "unit": "µg/mL"}, {"measurement": "MIC", "setting": "[6]", "value": 2, "unit": "µg/mL"}]}
{"smiles": "O=C(Cc1cccc(OC[C@@H]2CCCN2)c1)NNC(=O)[C@@H]1CC[C@@H]2CN1C(=O)N2OS(=O)(=O)O", "note": "[Example 58, (2S,5R)-sulfuric acid mono-[2-(N′-{2-[3-((S)-pyrrolidin-2-ylmethoxy)-phenyl]-acetyl}-hydrazinocarbonyl)-7-oxo-1,6-diaza-bicyclo[3.2.1]oct-6-yl]ester]", "values": [{"measurement": "IC50", "setting": "[1]", "value": 37, "unit": "nM"}, {"measurement": "MIC", "setting": "[2]", "value": 0.5, "unit": "µg/mL"}, {"measurement": "IC50", "setting": "[3]", "value": 53, "unit": "nM"}, {"measurement": "IC50", "setting": "[4]", "value": 1470, "unit": "nM"}, {"measurement": "MIC", "setting": "[5]", "value": 2, "unit": "µg/mL"}, {"measurement": "MIC", "setting": "[6]", "value": 1, "unit": "µg/mL"}]}
